Measurements reported in paper PMC11617094 (Molecular Biology of the Cell, 2024).

What was measured:
Alp7A [1] = target: T1, Alp7A (Bacillus subtilis, UniProt C7F6X5, E180A); experiment: right-angle light scattering of ATP-induced polymerization; phosphate release; details: Mg-ATP 3 mM (polymerization) or 10 mM (phosphate release), 25 mM Tris pH 7.5, 100 mM KCl, 1 mM MgCl2, 1 mM DTT; nucleotide-binding pocket mutant
T1 construct: untagged native Alp7A encoded by plasmid pLS20, codon-optimised gene in pET28a (NcoI/HindIII), expressed in E. coli C43, purified by a polymerization cycle and gel filtration; forms two-stranded filaments

Alp7A [2] = target: T2, Alp7A (Bacillus subtilis, UniProt C7F6X5); experiment: EnzChek phosphate release (ATPase on polymerization); assay type: biochemical; details: 10 mM ATP/Mg, 25 mM Tris pH 7.5, 100 mM KCl, 1 mM MgCl2, 1 mM DTT; no Alp7R
T2 construct: untagged native Alp7A encoded by plasmid pLS20, codon-optimised gene in pET28a (NcoI/HindIII), expressed in E. coli C43, purified by a polymerization cycle and gel filtration; forms two-stranded filaments
T2 sequence (C7F6X5 1-391): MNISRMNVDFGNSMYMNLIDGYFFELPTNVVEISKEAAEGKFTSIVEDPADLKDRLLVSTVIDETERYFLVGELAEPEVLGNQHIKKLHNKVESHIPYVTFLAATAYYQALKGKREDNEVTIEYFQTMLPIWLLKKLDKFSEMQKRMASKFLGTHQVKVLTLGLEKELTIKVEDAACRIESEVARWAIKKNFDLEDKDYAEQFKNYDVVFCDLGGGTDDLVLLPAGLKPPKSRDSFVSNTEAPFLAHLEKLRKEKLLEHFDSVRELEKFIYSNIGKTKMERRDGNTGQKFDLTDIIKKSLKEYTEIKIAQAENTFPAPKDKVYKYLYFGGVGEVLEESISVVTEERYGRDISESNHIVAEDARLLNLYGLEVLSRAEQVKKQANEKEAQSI

[3] = target: Alp7A (wild type, native, unlabelled) (Bacillus subtilis (plasmid pLS20)) (UniProt C7F6X5)
[4] = target: the molecule itself; experiment: negative-stain electron microscopy; polymers formed with 3 mM ATP/Mg++, adsorbed to carbon-coated grids, 0.75% uranyl formate; buffer as for light scattering

Nc1ncnc2c1ncn2[C@@H]1O[C@H](COP(=O)(O)OP(=O)(O)OP(=O)(O)O)[C@@H](O)[C@H]1O [ATP]
right-angle light scattering of ATP-induced polymerization; phosphate release (Alp7A [1]): addition of Mg-ATP to purified Alp7A-E180A induces formation of stable polymers
EnzChek phosphate release (ATPase on polymerization) (Alp7A [2]): phosphate dissociates rapidly from wild-type Alp7A polymers

Alp7A (wild type, native, unlabelled) (from UniProt C7F6X5 1-391) (natural protein)
concentration threshold of the specific ATPase activity (steady-state phosphate release) of Alp7A, taken as the critical concentration for elongation (ccE) [3]: 0.6 µM

B1: Alp7A-E180A (hydrolysis-dead mutant, unlabelled) (natural protein, Bacillus subtilis (plasmid pLS20), UniProt C7F6X5 1-391, looked up)
chain: MNISRMNVDFGNSMYMNLIDGYFFELPTNVVEISKEAAEGKFTSIVEDPADLKDRLLVSTVIDETERYFLVGELAEPEVLGNQHIKKLHNKVESHIPYVTFLAATAYYQALKGKREDNEVTIEYFQTMLPIWLLKKLDKFSEMQKRMASKFLGTHQVKVLTLGLEKELTIKVEDAACRIASEVARWAIKKNFDLEDKDYAEQFKNYDVVFCDLGGGTDDLVLLPAGLKPPKSRDSFVSNTEAPFLAHLEKLRKEKLLEHFDSVRELEKFIYSNIGKTKMERRDGNTGQKFDLTDIIKKSLKEYTEIKIAQAENTFPAPKDKVYKYLYFGGVGEVLEESISVVTEERYGRDISESNHIVAEDARLLNLYGLEVLSRAEQVKKQANEKEAQSI
binding result [4]: binds
